This experiment has as its target PI3Kδ (Homo sapiens (Human), UniProt O00329). As to the kind of experiment: PI3K Enzyme Assay (Example A2), [γ-33P]ATP filter plate. Type of experiment: biochemical. The method, then:
Example A2: PI3K Enzyme Assay
Lipid kinase substrate, phosphoinositol-4,5-bisphosphate (PIP2), are purchased from Echelon Biosciences (Salt Lake City, Utah). PI3K isoforms α, β, δ and γ are purchased from Millipore (Bedford, Mass.). ATP, MgCl2, DTT, EDTA, MOPS and CHAPS are purchased from Sigma-Aldrich (St. Louis, Mo.).
The kinase reaction are conducted in clear-bottom 96-well plate from Thermo Fisher Scientific in a final volume of 24 μL. Inhibitors are first diluted serially in DMSO and added to the plate wells before the addition of other reaction components. The final concentration of DMSO in the assay is 0.5%. The PI3K assays are carried out at room temperature in 20 mM MOPS, pH 6.7, 10 mM MgCl2, 5 mM DTT and CHAPS 0.03%. The reaction mixture is prepared containing 50 µM PIP2, kinase and varying concentration of inhibitors. Reactions are initiated by the addition of ATP containing 2.2 μCi [γ-^33P]ATP to a final concentration of 1000 μM. The final concentration of PI3K isoforms α, β, δ and γ in the assay were 1.3, 9.4, 2.9 and 10.8 nM, respectively. Reactions are incubated for 180 minutes and terminated by the addition of 100 μL of 1 M potassium phosphate pH 8.0, 30 mM EDTA quench buffer. A 100 μL aliquot of the reaction solution are then transferred to 96-well Millipore MultiScreen IP […] PVDF filter plate (The filter plate is prewetted with 200 μL 100% ethanol, distilled water, and 1 M potassium phosphate pH 8.0, respectively). The filter plate is aspirated on a Millipore Manifold under vacuum and washed with 18×200 μL wash buffer containing 1 M potassium phosphate pH 8.0 and 1 mM ATP. After drying by aspiration and blotting, the plate is air dried in an incubator at 37° C. overnight. Packard TopCount adapter (Millipore) is then attached to the plate followed with addition of 120 μL Microscint 20 scintillation cocktail (Perkin Elmer) in each well. After the plate sealing, the radioactivity of the product is determined by scintillation counting on Topcount (Perkin-Elmer). IC50 determination is performed by fitting the curve of percent control activity versus the log of the inhibitor concentration using the GraphPad Prism 3.0 software.

One may read the pIC50 as −log10 of the IC50, conventionally taken in molar units.

pIC50: −log10 of the molar value. Counter-ions that a name gives are not always drawn. Where only a bound is given, the exact number is not on record here.

Chain of PI3Kδ (O00329 whole entry): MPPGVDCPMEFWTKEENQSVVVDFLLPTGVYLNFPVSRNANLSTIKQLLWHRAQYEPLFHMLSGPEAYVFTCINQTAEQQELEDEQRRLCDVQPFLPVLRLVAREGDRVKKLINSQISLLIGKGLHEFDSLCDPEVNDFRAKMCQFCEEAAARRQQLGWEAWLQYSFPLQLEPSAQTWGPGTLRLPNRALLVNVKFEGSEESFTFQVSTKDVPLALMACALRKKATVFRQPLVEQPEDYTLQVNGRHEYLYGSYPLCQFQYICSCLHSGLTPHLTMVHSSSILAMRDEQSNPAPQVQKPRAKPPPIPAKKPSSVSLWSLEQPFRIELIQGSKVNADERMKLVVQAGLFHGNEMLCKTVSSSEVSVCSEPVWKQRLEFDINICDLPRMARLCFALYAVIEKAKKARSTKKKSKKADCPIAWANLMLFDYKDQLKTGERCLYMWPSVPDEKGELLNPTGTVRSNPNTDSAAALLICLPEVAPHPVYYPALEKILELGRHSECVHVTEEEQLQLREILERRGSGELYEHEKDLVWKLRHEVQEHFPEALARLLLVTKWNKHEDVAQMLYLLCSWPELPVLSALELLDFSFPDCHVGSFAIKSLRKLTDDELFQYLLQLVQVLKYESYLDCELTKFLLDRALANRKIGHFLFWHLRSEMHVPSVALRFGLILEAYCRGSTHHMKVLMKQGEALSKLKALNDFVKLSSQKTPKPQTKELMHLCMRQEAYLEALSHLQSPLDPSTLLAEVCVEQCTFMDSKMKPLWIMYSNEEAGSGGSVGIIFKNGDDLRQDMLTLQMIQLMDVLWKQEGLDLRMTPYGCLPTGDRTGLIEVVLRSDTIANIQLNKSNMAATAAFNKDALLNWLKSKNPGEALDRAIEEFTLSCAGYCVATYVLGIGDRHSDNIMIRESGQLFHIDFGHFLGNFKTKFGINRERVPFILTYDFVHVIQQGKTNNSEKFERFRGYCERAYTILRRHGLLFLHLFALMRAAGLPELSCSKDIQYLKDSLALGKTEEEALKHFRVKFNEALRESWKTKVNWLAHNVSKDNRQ
Chain of PI3Kδ (P27986 whole entry partner): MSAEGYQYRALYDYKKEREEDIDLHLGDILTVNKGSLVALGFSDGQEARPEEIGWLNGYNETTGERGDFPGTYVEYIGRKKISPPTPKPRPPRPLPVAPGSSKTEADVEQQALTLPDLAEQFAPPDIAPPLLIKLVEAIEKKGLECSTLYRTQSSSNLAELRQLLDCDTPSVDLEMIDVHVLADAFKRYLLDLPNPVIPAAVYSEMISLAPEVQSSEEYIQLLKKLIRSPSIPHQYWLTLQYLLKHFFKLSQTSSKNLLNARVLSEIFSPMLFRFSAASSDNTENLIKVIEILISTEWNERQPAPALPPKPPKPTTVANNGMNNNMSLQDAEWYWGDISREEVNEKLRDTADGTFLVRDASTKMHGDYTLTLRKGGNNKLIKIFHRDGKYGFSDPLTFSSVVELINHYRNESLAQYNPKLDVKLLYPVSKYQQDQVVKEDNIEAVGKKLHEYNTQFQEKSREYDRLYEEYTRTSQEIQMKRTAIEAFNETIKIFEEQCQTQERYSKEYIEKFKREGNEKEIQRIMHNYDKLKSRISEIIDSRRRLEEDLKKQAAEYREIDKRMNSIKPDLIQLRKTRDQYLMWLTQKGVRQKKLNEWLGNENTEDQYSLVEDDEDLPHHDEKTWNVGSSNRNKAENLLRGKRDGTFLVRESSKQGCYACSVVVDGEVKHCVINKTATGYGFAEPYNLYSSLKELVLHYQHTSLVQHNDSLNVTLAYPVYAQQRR

The molecule `Cc1nn([C@@H](C)c2cc(Cl)c(F)c3c2O[C@@H](C)CN(C2CN(C[C@H](C)O)C2)C3)c2ncnc(N)c12` [Example 85, (2S)-1-{3-[(2S)-9-[(1S)-1-(4-amino-3-methyl-1H-pyrazolo[3,4-d]pyrimidin-l-yl)ethyl]-7-chloro-6-fluoro-2-methyl-2,3-dihydro-1,4-benzoxazepin-4(5H)-yl]azetidin-1-yl}propan-2-ol] showed a negative logarithm of the IC50 (pIC50) not below 7.00. Molecule `Cc1nn(C(C)c2cc(Cl)c(C#N)c3c2OC(C)CN(C2CN(CC(C)(C)O)C2)C3)c2ncnc(N)c12` (single isomer, unassigned) [Example 54, 9-[1-(4-Amino-3-methyl-1H-pyrazolo[3,4-d]pyrimidin-1-yl)ethyl]-7-chloro-4-[1-(2-hydroxy-2-methylpropyl)azetidin-3-yl]-2-methyl-2,3,4,5-tetrahydro-1,4-benzoxazepine-6-carbonitrile] showed a pIC50 not below 7.00. The value for `COCCN1Cc2c(C#N)c(Cl)cc(C(C)n3nc(C)c4c(N)ncnc43)c2OC(C)C1` (single isomer, unassigned) [Example 111, 9-[1-(4-amino-3-methyl-1H-pyrazolo[3,4-d]pyrimidin-1-yl)ethyl]-7-chloro-4-(2-methoxyethyl)-2-methyl-2,3,4,5-tetrahydro-1,4-benzoxazepine-6-carbonitrile] was not below 7.00; that for `Cc1nn(C(C)c2cc(Cl)c(C#N)c3c2OC(C)CN(CC(N)=O)C3)c2ncnc(N)c12` (single isomer, unassigned) [Example 110, 2-[9-[1-(4-amino-3-methyl-1H-pyrazolo[3,4-d]pyrimidin-1-yl)ethyl]-7-chloro-6-cyano-2-methyl-2,3-dihydro-1,4-benzoxazepin-4(5H)-yl]acetamide] was not below 7.00. As to `Cc1nn(C(C)c2cc(Cl)c(C#N)c3c2OCCN(C2CN(C(=O)NC(C)C)C2)C3)c2ncnc(N)c12` (stereo not shown) [Example 91, 3-[9-[1-(4-amino-3-methyl-1H-pyrazolo[3,4-d]pyrimidin-1-yl)ethyl]-7-chloro-6-cyano-2,3-dihydro-1,4-benzoxazepin-4(5H)-yl]-N-isopropylazetidine-1-carboxamide], the negative logarithm of the IC50 (pIC50) was not below 7.00. On to `Cc1nn(C(C)c2cc(Cl)c(F)c3c2O[C@@H](C)CN(C2CC(C(=O)O)C2)C3)c2ncnc(N)c12` (stereo partly shown) [Example 41, 3-[9-[1-(4-Amino-3-methyl-1H-pyrazolo[3,4-d]pyrimidin-1-yl)ethyl]-7-chloro-6-fluoro-2-methyl-2,3-dihydro-1,4-benzoxazepin-4(5H)-yl]cyclobutanecarboxylic acid trifluoroacetate], for which the pIC50 was not below 7.00.

For the molecule `Cc1nn(C(C)c2cc(Cl)c(F)c3c2OC[C@H](C)N(S(C)(=O)=O)C3)c2ncnc(N)c12` (single isomer, unassigned) [Example 36], the negative-log IC50 (pIC50) was 6.00 to 6.30. Molecule `CCOC(=O)N1CC(N2Cc3c(C#N)c(Cl)cc(C(C)n4nc(C)c5c(N)ncnc54)c3OC(C)C2)C1` (single isomer, unassigned) [Example 99, ethyl 3-[9-[1-(4-amino-3-methyl-1H-pyrazolo[3,4-d]pyrimidin-1-yl)ethyl]-7-chloro-6-cyano-2-methyl-2,3-dihydro-1,4-benzoxazepin-4(5H)-yl]azetidine-1-carboxylate] had a pIC50 not below 7.00.

Turning to `Cc1nn(C(C)c2cc(Cl)c(C#N)c3c2OC(C)CN(CC(C)(C)O)C3)c2ncnc(N)c12` (single isomer, unassigned) [Example 66, 9-[1-(4-Amino-3-methyl-1H-pyrazolo[3,4-d]pyrimidin-1-yl)ethyl]-7-chloro-4-(2-hydroxy-2-methylpropyl)-2-methyl-2,3,4,5-tetrahydro-1,4-benzoxazepine-6-carbonitrile], the pIC50 is not below 7.00. On to `Cc1nn(C(C)c2cc(Cl)c(C#N)c3c2OC(C)CN(C2CN(S(=O)(=O)N(C)C)C2)C3)c2ncnc(N)c12` (single isomer, unassigned) [Example 106, 3-[9-[1-(4-amino-3-methyl-1H-pyrazolo[3,4-d]pyrimidin-1-yl)ethyl]-7-chloro-6-cyano-2-methyl-2,3-dihydro-1,4-benzoxazepin-4(5H)-yl]-N,N-dimethylazetidine-1-sulfonamide], for which the pIC50 is not below 7.00. The value for `CC(=O)NC1CC(N2Cc3c(C#N)c(Cl)cc(C(C)n4nc(C)c5c(N)ncnc54)c3OC(C)C2)C1` (single isomer, unassigned) [Example 68, N-{3-[9-[1-(4-Amino-3-methyl-1H-pyrazolo[3,4-d]pyrimidin-1-yl)ethyl]-7-chloro-6-cyano-2-methyl-2,3-dihydro-1,4-benzoxazepin-4(5H)-yl]cyclobutyl}acetamide] was not below 7.00. The value for `Cc1nn(C(C)c2cc(Cl)c(F)c3c2O[C@@H](C)CN(C2CC(C(N)=O)C2)C3)c2ncnc(N)c12` (single isomer, unassigned) [Example 44] was not below 7.00; that for `Cc1nn(C(C)c2cc(Cl)c(C#N)c3c2OC(C)CN(C2CN(C(=O)NC(C)C)C2)C3)c2ncnc(N)c12` (single isomer, unassigned) [Example 101, 3-[9-[1-(4-amino-3-methyl-1H-pyrazolo[3,4-d]pyrimidin-1-yl)ethyl]-7-chloro-6-cyano-2-methyl-2,3-dihydro-1,4-benzoxazepin-4(5H)-yl]-N-isopropylazetidine-1-carboxamide] was not below 7.00. In the case of `CC(=O)NC1CC(N2Cc3c(C#N)c(Cl)cc(C(C)n4nc(C)c5c(N)ncnc54)c3OC(C)C2)C1` (single isomer, unassigned) [Example 67, N-{3-[9-[1-(4-Amino-3-methyl-1H-pyrazolo[3,4-d]pyrimidin-1-yl)ethyl]-7-chloro-6-cyano-2-methyl-2,3-dihydro-1,4-benzoxazepin-4(5H)-yl]cyclobutyl}acetamide] it was not below 7.00; in that of `Cc1nn(C(C)c2cc(Cl)c(F)c3c2OC[C@H](C)N(S(C)(=O)=O)C3)c2ncnc(N)c12` (single isomer, unassigned) [Example 35], not below 7.00; in that of `Cc1nn(C(C)c2cc(Cl)c(F)c3c2O[C@@H](C)CN(C2CN(CC(N)=O)C2)C3)c2ncnc(N)c12` (single isomer, unassigned) [Example 88], not below 7.00.

The molecule `CCC(=O)N1CC(N2Cc3c(F)c(Cl)cc(C(C)n4nc(C)c5c(N)ncnc54)c3OC(C)C2)C1` (stereo not shown) [Example 76, 1-{1-[7-chloro-6-fluoro-2-methyl-4-(1-propionylazetidin-3-yl)-2,3,4,5-tetrahydro-1,4-benzoxazepin-9-yl]ethyl}-3-methyl-1H-pyrazolo[3,4-d]pyrimidin-4-amine] gave a negative-log IC50 (pIC50) not below 7.00. In the case of `CCC1CN(CCO)Cc2c(C#N)c(Cl)cc(C(C)n3nc(C)c4c(N)ncnc43)c2O1` (single isomer, unassigned) [Example 70, 9-[1-(4-Amino-3-methyl-1H-pyrazolo[3,4-d]pyrimidin-1-yl)ethyl]-7-chloro-2-ethyl-4-(2-hydroxyethyl)-2,3,4,5-tetrahydro-1,4-benzoxazepine-6-carbonitrile] it was not below 7.00. The value for `CNC(=O)C1CC(N2Cc3c(C#N)c(Cl)cc(C(C)n4nc(C)c5c(N)ncnc54)c3OC(C)C2)C1` (single isomer, unassigned) [Example 114, 3-[9-[1-(4-amino-3-methyl-1H-pyrazolo[3,4-d]pyrimidin-1-yl)ethyl]-7-chloro-6-cyano-2-methyl-2,3-dihydro-1,4-benzoxazepin-4(5H)-yl]-N-methylcyclobutanecarboxamide] was not below 7.00; that for `Cc1nn(C(C)c2cc(Cl)c(C#N)c3c2OC(C)CN(CCO)C3)c2ncnc(N)c12` (single isomer, unassigned) [Example 61, 9-[1-(4-Amino-3-methyl-1H-pyrazolo[3,4-d]pyrimidin-1-yl)ethyl]-7-chloro-4-(2-hydroxyethyl)-2-methyl-2,3,4,5-tetrahydro-1,4-benzoxazepine-6-carbonitrile] was less than 6.10. The value for `Cc1nn(C(C)c2cc(Cl)c(F)c3c2OC(C)CN(C2CN(S(C)(=O)=O)C2)C3)c2ncnc(N)c12` (stereo not shown) [Example 75, 1-(1-{7-chloro-6-fluoro-2-methyl-4-[1-(methylsulfonyl)azetidin-3-yl]-2,3,4,5-tetrahydro-1,4-benzoxazepin-9-yl}ethyl)-3-methyl-1H-pyrazolo[3,4-d]pyrimidin-4-amine] was not below 7.00; that for `Cc1nn(C(C)c2cc(Cl)c(F)c3c2OCCN(C2CN(S(=O)(=O)N(C)C)C2)C3)c2ncnc(N)c12` (stereo not shown) [Example 74, 3-[9-[1-(4-amino-3-methyl-1H-pyrazolo[3,4-d]pyrimidin-1-yl)ethyl]-7-chloro-6-fluoro-2,3-dihydro-1,4-benzoxazepin-4(5H)-yl]-N,N-dimethylazetidine-1-sulfonamide] was not below 7.00.
